Consider two molecules from paper PMC4286194 (Biochemical Journal, 2015).

By remaining activity is commonly meant the signal under treatment as a percentage of the control signal.

Test [1] has as its system Bone-marrow-derived macrophages. Nature of the test: Markers of alternatively activated macrophages (qPCR). Particulars: 3 μM bosutinib or 0.3 μM dasatinib 1 h, then LPS. It is filed as cell-based, mouse. As for the experimental part: mRNA was extracted from cells using the MicroElute Total RNA kit following the manufacturers’ instructions (Omega Bio-Tek). cDNA was generated from 0.5 μg of total RNA using the iScript cDNA synthesis kit and quantified by quantitative real-time PCR (qPCR) using the SsoFast EvaGreen Supermix on a CFX384 real-time system (Bio-Rad Laboratories). The relative expression of each gene was calculated from CT values using the Pfaffl method and was normalized against the mRNA levels of housekeeping genes including 18S RNA and GAPDH. Results are reported relative to untreated control cells, which were set to 1.

For the next test, the target named is T1, EIF2AK3 (Homo sapiens, UniProt Q9NZJ5).
T1 sequence (Q9NZJ5 30-1116): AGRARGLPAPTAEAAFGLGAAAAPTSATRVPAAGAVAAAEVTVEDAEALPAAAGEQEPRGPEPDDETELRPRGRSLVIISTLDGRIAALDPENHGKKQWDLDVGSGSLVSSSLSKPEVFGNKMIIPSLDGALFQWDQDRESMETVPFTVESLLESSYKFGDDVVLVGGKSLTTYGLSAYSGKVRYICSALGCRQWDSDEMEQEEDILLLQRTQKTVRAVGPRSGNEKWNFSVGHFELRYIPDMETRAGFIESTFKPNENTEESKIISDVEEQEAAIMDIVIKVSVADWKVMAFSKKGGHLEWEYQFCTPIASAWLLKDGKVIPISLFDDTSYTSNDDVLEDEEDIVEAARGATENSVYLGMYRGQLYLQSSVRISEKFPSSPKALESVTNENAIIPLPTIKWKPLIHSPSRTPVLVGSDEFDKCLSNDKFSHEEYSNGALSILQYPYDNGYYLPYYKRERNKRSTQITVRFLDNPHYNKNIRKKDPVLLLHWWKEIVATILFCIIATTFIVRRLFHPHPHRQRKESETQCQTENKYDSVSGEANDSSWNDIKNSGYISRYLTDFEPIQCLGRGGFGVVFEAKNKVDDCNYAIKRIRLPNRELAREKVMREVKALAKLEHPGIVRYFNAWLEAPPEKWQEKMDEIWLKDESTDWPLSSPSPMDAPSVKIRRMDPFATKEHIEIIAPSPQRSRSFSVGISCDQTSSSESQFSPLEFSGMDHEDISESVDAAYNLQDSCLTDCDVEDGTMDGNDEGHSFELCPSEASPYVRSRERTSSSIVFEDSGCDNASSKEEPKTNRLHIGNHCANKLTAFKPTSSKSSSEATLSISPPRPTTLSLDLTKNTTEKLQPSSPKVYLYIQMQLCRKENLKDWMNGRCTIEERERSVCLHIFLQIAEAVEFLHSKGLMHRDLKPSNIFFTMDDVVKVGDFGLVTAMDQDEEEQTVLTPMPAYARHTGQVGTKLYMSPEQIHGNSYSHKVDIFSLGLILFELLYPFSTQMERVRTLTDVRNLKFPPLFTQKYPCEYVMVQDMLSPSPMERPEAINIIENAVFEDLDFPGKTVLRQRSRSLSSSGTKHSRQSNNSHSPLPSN
Nature of the test: Kinase profiling. It is filed as biochemical.

The target of a further test is HIPK3 (Homo sapiens, UniProt Q9H422). Kind of test: Kinase profiling. It is filed as biochemical.
The target of another test is IGF-1R (Homo sapiens, UniProt P08069). Kind of test: Kinase profiling. It is filed as biochemical.
Another test deals with IRAK1 (Homo sapiens, UniProt P51617). Nature of the test: Kinase profiling. The test is classed as biochemical.
A further test concerns the target MAPKAP-K3 (Homo sapiens, UniProt Q16644). Kind of test: Kinase profiling. It is filed as biochemical.
In a further test the target is PAK5 (Homo sapiens, UniProt Q9P286). Nature of the test: Kinase profiling. It is filed as biochemical.
The target in another test is PIM2 (Homo sapiens, UniProt Q9P1W9). Kind of test: Kinase profiling. It is filed as biochemical.
The target of a further test is PLK1 (Homo sapiens, UniProt P53350). Nature of the test: Kinase profiling. The test is classed as biochemical.
The target of another test is T2, TAO1 (Homo sapiens, UniProt Q7L7X3).
T2 sequence (Q7L7X3 1-1001): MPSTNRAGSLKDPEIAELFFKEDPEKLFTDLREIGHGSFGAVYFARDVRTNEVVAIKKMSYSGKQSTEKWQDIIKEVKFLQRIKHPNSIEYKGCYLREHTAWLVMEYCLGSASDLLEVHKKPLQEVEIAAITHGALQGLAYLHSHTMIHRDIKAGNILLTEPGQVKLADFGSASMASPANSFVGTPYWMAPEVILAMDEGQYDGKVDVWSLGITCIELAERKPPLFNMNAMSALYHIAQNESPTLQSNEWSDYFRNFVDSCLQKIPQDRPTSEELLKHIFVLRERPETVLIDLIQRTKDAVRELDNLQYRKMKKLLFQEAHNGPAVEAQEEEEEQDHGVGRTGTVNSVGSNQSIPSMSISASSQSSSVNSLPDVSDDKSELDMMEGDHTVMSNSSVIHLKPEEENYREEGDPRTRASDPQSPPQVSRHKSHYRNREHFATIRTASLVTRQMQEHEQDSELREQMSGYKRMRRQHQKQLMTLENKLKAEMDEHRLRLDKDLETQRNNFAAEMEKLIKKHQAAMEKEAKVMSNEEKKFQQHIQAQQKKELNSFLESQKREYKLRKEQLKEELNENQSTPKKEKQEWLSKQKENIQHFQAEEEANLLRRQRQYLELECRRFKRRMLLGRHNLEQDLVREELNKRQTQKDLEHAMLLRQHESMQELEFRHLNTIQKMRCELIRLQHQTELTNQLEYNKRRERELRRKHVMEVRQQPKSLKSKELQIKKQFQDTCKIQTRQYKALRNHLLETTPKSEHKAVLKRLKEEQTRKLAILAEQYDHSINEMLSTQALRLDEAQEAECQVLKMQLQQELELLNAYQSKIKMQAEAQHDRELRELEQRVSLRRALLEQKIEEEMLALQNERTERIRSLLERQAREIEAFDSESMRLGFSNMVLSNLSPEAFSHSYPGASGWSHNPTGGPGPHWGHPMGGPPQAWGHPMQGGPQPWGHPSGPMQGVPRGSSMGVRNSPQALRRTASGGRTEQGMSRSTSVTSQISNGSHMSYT
Kind of test: Kinase profiling. It is filed as biochemical.

Chain of PIM2 (Q9P1W9 whole entry): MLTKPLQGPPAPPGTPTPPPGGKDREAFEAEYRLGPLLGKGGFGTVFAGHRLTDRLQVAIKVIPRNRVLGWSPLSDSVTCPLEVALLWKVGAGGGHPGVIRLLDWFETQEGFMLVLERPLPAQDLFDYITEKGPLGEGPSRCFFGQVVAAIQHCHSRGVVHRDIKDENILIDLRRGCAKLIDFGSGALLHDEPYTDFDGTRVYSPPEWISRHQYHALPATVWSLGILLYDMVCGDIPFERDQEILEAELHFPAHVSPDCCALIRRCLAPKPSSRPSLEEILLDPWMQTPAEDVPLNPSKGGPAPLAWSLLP
Chain of PAK5 (Q9P286 whole entry): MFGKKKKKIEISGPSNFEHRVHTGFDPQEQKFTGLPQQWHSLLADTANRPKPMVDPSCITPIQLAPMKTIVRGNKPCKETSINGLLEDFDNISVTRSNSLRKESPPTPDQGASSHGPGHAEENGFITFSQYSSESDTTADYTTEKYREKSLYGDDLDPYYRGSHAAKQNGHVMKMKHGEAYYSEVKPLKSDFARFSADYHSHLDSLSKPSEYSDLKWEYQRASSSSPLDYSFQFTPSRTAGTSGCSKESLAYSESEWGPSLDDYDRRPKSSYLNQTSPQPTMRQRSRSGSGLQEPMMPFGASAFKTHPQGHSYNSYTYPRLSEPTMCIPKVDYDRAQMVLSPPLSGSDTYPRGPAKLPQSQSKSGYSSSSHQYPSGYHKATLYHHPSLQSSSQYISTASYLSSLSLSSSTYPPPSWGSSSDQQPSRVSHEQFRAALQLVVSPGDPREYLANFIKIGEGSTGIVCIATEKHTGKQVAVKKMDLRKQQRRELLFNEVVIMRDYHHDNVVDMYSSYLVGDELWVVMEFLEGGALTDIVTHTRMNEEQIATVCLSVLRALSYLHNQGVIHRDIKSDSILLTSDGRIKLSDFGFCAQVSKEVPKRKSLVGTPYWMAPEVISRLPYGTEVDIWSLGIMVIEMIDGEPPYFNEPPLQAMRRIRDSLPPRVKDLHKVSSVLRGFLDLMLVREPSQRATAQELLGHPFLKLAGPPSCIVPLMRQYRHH
Chain of PLK1 (P53350 whole entry): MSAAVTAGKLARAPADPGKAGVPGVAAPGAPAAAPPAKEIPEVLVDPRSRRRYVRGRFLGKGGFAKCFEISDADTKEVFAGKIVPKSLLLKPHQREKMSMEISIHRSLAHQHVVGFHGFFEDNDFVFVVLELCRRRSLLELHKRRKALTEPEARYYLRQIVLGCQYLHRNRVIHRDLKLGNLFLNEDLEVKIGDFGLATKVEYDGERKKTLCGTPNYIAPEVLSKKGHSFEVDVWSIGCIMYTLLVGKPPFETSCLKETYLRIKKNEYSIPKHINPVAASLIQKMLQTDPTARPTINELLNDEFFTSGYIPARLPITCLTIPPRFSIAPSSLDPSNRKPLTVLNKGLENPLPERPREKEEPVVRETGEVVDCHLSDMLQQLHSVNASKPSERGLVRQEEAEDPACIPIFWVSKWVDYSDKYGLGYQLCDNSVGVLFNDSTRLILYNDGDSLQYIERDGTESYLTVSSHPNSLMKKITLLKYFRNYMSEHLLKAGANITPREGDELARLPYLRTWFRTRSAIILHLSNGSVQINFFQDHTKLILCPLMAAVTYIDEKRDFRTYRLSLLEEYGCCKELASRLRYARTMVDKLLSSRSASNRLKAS
Chain of IGF-1R (P08069 31-1367): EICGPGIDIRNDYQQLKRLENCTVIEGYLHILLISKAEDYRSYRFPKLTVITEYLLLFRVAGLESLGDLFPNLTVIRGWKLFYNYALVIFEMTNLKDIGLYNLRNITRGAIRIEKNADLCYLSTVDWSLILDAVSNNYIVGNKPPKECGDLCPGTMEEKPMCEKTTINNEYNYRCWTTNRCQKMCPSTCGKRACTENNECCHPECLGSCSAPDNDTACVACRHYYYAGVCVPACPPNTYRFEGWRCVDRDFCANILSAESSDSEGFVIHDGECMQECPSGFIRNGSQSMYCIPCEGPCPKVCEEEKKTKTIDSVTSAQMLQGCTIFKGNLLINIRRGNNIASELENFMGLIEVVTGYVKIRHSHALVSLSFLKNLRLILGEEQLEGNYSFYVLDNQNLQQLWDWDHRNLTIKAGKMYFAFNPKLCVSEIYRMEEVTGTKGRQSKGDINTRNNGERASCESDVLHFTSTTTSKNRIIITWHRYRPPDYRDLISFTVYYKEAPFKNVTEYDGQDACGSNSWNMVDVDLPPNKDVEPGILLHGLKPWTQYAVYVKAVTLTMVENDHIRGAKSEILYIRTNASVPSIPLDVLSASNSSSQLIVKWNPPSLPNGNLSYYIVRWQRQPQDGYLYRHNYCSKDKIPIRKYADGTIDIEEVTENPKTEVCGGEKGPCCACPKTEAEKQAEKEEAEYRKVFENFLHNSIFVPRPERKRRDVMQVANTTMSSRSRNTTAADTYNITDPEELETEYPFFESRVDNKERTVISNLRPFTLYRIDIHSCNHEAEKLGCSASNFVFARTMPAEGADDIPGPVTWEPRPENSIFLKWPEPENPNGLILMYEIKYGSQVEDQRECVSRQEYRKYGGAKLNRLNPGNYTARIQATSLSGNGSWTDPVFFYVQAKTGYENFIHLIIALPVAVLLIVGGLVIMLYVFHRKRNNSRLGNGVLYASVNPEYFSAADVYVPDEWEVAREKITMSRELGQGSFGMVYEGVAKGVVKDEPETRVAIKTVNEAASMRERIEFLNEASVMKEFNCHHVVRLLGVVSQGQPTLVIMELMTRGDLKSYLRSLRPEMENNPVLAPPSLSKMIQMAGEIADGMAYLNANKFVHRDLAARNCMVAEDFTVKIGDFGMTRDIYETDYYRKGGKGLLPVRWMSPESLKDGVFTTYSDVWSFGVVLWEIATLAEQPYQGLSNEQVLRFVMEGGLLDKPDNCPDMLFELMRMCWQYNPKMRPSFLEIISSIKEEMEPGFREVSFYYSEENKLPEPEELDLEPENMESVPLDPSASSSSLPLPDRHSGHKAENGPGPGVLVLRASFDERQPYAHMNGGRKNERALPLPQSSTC
Chain of HIPK3 (Q9H422 whole entry): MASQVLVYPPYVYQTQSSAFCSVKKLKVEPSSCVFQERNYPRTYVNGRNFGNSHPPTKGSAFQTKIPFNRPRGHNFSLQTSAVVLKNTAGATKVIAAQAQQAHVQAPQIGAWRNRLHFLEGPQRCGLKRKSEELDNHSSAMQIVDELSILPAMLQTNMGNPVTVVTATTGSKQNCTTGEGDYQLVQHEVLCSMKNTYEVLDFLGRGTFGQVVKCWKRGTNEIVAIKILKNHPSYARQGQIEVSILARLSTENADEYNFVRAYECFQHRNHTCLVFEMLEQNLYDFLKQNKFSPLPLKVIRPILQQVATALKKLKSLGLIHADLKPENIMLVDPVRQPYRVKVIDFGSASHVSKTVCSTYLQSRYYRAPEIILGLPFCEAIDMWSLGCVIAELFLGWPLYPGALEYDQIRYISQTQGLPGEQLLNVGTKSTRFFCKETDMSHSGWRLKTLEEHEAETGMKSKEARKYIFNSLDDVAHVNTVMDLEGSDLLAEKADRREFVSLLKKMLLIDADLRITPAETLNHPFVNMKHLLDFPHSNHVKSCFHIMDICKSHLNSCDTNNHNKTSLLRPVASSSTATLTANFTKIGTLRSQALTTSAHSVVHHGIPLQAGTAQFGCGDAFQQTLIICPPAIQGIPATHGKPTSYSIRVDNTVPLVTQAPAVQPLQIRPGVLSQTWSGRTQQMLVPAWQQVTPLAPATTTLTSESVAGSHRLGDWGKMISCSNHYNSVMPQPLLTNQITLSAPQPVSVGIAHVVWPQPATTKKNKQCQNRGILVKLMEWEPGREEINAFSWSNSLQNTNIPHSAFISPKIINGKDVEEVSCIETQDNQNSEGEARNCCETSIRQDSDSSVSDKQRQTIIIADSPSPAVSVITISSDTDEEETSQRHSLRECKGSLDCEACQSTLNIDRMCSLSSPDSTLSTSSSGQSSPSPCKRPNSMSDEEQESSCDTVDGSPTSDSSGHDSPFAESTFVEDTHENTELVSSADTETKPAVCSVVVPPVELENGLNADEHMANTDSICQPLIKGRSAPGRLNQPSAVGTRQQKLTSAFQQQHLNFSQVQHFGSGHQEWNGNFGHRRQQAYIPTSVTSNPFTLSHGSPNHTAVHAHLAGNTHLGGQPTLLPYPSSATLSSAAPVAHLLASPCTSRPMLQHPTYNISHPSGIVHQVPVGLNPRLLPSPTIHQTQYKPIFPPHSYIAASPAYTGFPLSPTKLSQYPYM
Chain of MAPKAP-K3 (Q16644 whole entry): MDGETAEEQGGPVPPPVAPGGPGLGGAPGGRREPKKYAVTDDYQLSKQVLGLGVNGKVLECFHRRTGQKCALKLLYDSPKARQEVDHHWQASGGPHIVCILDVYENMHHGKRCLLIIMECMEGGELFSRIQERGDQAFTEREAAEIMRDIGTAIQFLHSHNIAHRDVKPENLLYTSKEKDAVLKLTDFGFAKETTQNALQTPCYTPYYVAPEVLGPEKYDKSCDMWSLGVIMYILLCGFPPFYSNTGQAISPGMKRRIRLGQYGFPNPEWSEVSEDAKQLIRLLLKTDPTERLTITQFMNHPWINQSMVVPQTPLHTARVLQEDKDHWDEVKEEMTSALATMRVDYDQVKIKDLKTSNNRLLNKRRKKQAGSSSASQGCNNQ

Take `COc1cc(Nc2c(C#N)cnc3cc(OCCCN4CCN(C)CC4)c(OC)cc23)c(Cl)cc1Cl` [Bosutinib, bosutinib]: the “Expression of FIZZ, YM1 and Mgl2” value in test [1] is “without affecting the expression”. Further, the remaining activity at 0.1 µM on EIF2AK3 turned out to be 107 ± 5%; at IGF-1R, 89 ± 8%; at IRAK1, 77 ± 3%; on MAPKAP-K3, 113 ± 1%; on PAK5, 105 ± 18%; on PIM2 it was 99%. Also, the remaining activity at 0.1 µM on PLK1 came to 97 ± 12%. In addition, the remaining activity at 1 µM at EIF2AK3 came out at 103%; on HIPK3, 66 ± 5%; at IGF-1R it was 79 ± 4%; on IRAK1, 65%; on MAPKAP-K3 it was 103 ± 8%; at PAK5 it was 129 ± 5%. For the same molecule, the remaining activity at 1 µM at PIM2 amounted to 96 ± 8%; at PLK1 (1 µM), 74 ± 6%; at TAO1, 102 ± 7%.
Take `Cc1nc(Nc2ncc(C(=O)Nc3c(C)cccc3Cl)s2)cc(N2CCN(CCO)CC2)n1` [Dasatinib]: the “Expression of FIZZ, YM1 and Mgl2” value in [1] is on record as “without affecting the expression”. The remaining activity at 0.1 µM at EIF2AK3 turned out to be 106 ± 6%; on HIPK3 (0.1 µM), 102 ± 3%; at IGF-1R it was 107 ± 6%; on IRAK1, 96 ± 1%; at MAPKAP-K3, 117 ± 3%; on PAK5 it was 131 ± 12%. Moreover, the remaining activity at 0.1 µM at PIM2 was found to be 104 ± 3%; at PLK1, 133 ± 18%; at TAO1 (0.1 µM), 120 ± 9%. The remaining activity at 1 µM on EIF2AK3 was 113 ± 2%; at HIPK3 it was 113 ± 7%; at IGF-1R, 98 ± 7%; at IRAK1, 108 ± 3%; on MAPKAP-K3, 132 ± 1%; at PAK5, 138 ± 7%. The remaining activity at 1 µM came to 105 ± 1% at PIM2 and 95 ± 7% at TAO1.
